Test results as given in patent US20020091095A1, “Modulation of Fas and FasL expression” (priority 1999, published 2002).

What was measured:
Fas [1] = test: Inhibition of Fas expression on Jurkat cells by cycloheximide; assay type: cell-based, human; conditions: Jurkat cells, 0.1 μg/ml cycloheximide
Procedure: (§1) Fas and FasL expression were measured by flow cytometry using anti-Fas FITC-conjugated monoclonal antibodies and anti-FasL PE-conjugated monoclonal antibodies in a FACScalibur Flow Cytometer (Becton Dickinson, San Jose, Calif., USA) using the CELLQuest program (Becton Dickinson).
(§2) Results are expressed as percentage (%) increase in the expression of Fas and of FasL measured on treated cells compared to control cells.
Jurkat human leukemia T cells were pre-incubated with 0.0 μg/ml (−CHX) or with 0.1 μg/ml of cycloheximide (+CHX) for 1 h. Ten μg/ml or 100 μg/ml of 6 base SEQ ID NO:5 (GGGTGG) was added to both the −CHX and +CHX cells and the incubation was continued for 24 hours and for 48 hours (Table 10).

FasL [2] = test: FasL expression at the cell surface by flow cytometry, SK-OV-3 cells; assay type: cell-based, human; conditions: SK-OV-3 ovarian cancer cells, 100 μg/ml sequence, 48 h, treated vs control cells
Procedure: (§3) Cancer cells and PBMCs were seeded in 6 well flat-bottom microplates and were maintained at 37° C. in a 5% CO2 atmosphere. Unless stated otherwise, 2×10^5 cells/ml were incubated for 48 h with 0 μg/ml (control) or 100 μg/ml ([…]) (treated) of the sequences.
as §1, §2
(§4) SK-OV-3 ovarian cancer cells are a p53 mutated, p21/waf-1/Cip deleted, p15^ink4B,p16^ink4 deleted metastatic human solid tumor model.

FasL [3] = test: FasL expression at the cell surface by flow cytometry, OVCAR-3 cells; assay type: cell-based, human; conditions: OVCAR-3 ovarian cancer cells, 100 μg/ml sequence, 48 h, treated vs control cells
Procedure: as §3, §1, §2
(§5) OVCAR-3 ovarian cancer cells are a p53 mutated, p21/waf-1/Cip deleted, metastatic human solid tumor model.

FasL [4] = test: FasL expression at the cell surface by flow cytometry, UMUC-3 cells; assay type: cell-based, human; conditions: UMUC-3 bladder cancer cells, 100 μg/ml sequence, 48 h, treated vs control cells
Procedure: as §3, §1, §2
(§6) UMUC-3 bladder cancer cells are a P-glycoprotein overexpressing human cell line.

Fas [5] = test: Fas expression at the cell surface by flow cytometry, UMUC-3 cells; assay type: cell-based, human; conditions: UMUC-3 bladder cancer cells, 100 μg/ml sequence, 48 h, treated vs control cells
Procedure: as §3, §1, §2, §6

Fas [6] = test: Fas expression at the cell surface by flow cytometry, T-24 cells; assay type: cell-based, human; conditions: T-24 bladder cancer cells, 100 μg/ml sequence, 48 h, treated vs control cells
Procedure: as §3, §1, §2
(§7) T-24 bladder cancer cells are a p53 mutated human cell line T-24 cells (1.0×10^5 cells/ml) were incubated with the 6 base sequences shown in Table 4.

FasL [7] = test: FasL expression at the cell surface by flow cytometry, PBMCs; assay type: cell-based, human; conditions: 100 μg/ml sequence, 48 h, treated vs control cells
Procedure: (§8) Peripheral blood mononuclear cells (hereinafter, “PBMCs”) were isolated from human blood by Ficoll-Hypaque (Amersham Pharmacia Biotech, Baie d'Urfée, Québec, Canada) density gradient centrifugation.
as §3, §1, §2

Fas [8] = test: Fas expression at the cell surface by flow cytometry, MCF-7 cells; assay type: cell-based, human; conditions: MCF-7 breast cancer cells, 100 μg/ml sequence, 48 h, treated vs control cells
Procedure: as §3, §1, §2
(§9) MCF-7 human breast cancer cells are a caspase-3 negative, estrogen-dependent human solid tumor model.

Fas [9] = test: Fas expression at the cell surface by flow cytometry, SK-OV-3 cells; assay type: cell-based, human; conditions: SK-OV-3 ovarian cancer cells, 100 μg/ml sequence, 48 h, treated vs control cells
Procedure: as §3, §1, §2, §4

FasL [10] = test: FasL expression at the cell surface by flow cytometry, LNCaP cells; assay type: cell-based, human; conditions: LNCaP prostate cancer cells, 100 μg/ml sequence, 48 h, treated vs control cells
Procedure: as §3, §1, §2
(§10) LNCaP prostate cancer cells are a TGF-beta 1 receptor negative, […], metastatic human solid tumor model.

Fas [11] = test: Fas expression at the cell surface by flow cytometry, PBMCs; assay type: cell-based, human; conditions: 100 μg/ml sequence, 48 h, treated vs control cells
Procedure: as §8, §3, §1, §2

Fas [12] = test: Fas expression at the cell surface by flow cytometry, Jurkat cells; assay type: cell-based; conditions: Jurkat human leukemia T cells, 100 μg/ml sequence, 48 h, treated vs control cells
Procedure: as §3, §1, §2
(§11) Jurkat human leukemia T cells are an atypical multi-drug resistant human suspension tumor cell model.

FasL [13] = test: FasL expression at the cell surface by flow cytometry, T-24 cells; assay type: cell-based, human; conditions: T-24 bladder cancer cells, 100 μg/ml sequence, 48 h, treated vs control cells
Procedure: as §3, §1, §2, §7

FasL [14] = test: FasL expression at the cell surface by flow cytometry, MCF-7 cells; assay type: cell-based, human; conditions: MCF-7 breast cancer cells, 100 μg/ml sequence, 48 h, treated vs control cells
Procedure: as §3, §1, §2, §9

Fas [15] = test: Fas expression at the cell surface by flow cytometry, LNCaP cells; assay type: cell-based, human; conditions: LNCaP prostate cancer cells, 100 μg/ml sequence, 48 h, treated vs control cells
Procedure: as §3, §1, §2, §10

FasL [16] = test: FasL expression at the cell surface by flow cytometry, Jurkat cells; assay type: cell-based; conditions: Jurkat human leukemia T cells, 100 μg/ml sequence, 48 h, treated vs control cells
Procedure: as §3, §1, §2, §11

Fas [17] = test: Fas expression at the cell surface by flow cytometry, OVCAR-3 cells; assay type: cell-based, human; conditions: OVCAR-3 ovarian cancer cells, 100 μg/ml sequence, 48 h, treated vs control cells
Procedure: as §3, §1, §2, §5

Molecule	decrease of Fas expression by cycloheximide (Fas [1]; with 10 μg/ml of SEQ ID NO:5, after 24 h)	decrease of Fas expression by cycloheximide (Fas [1]; with 10 μg/ml of SEQ ID NO:5, after 48 h)	decrease of Fas expression by cycloheximide (Fas [1]; with 100 μg/ml of SEQ ID NO:5, after 24 h)	decrease of Fas expression by cycloheximide (Fas [1]; with 100 μg/ml of SEQ ID NO:5, after 48 h)	% INCREASE FasL (FasL [2])	% INCREASE FasL (FasL [3])	% INCREASE FasL (FasL [4])	% INCREASE Fas (Fas [5])	% INCREASE Fas (Fas [6])	% INCREASE FasL (FasL [7])	% INCREASE Fas (Fas [8])	% INCREASE Fas (Fas [9])	% INCREASE FasL (FasL [10])	% INCREASE Fas (Fas [11])	% INCREASE Fas (Fas [12])	% INCREASE FasL (FasL [13])	% INCREASE FasL (FasL [14])	% INCREASE Fas (Fas [15])	% INCREASE FasL (FasL [16])	% INCREASE Fas (Fas [17])
C[C@@H]1C[C@@H]([C@H](O)CC2CC(=O)NC(=O)C2)C(=O)[C@@H](C)C1 [cycloheximide, reference compound]	92%	44%	65%	23%	–	–	–	–	–	–	–	–	–	–	–	–	–	–	–	–
GGTTGG [SEQ ID NO:13]	–	–	–	–	−3%	10%	98%	47%	75%	−32%	99%	16%	−3%	−3%	99%	25%	83%	23%	86%	22%
GTGTGT [SEQ ID NO:2]	–	–	–	–	24%	69%	154%	72%	93%	99%	155%	60%	5%	94%	52%	77%	135%	34%	43%	77%
TCGTTC [SEQ ID NO:12]	–	–	–	–	−3%	224%	112%	47%	105%	847%	56%	9%	171%	597%	121%	74%	98%	111%	75%	126%
TGGTTG [SEQ ID NO:9]	–	–	–	–	53%	270%	300%	143%	180%	1322%	255%	63%	241%	1043%	362%	397%	481%	184%	952%	221%
TGTGTG [SEQ ID NO:1]	–	–	–	–	37%	70%	112%	72%	84%	260%	122%	49%	40%	126%	52%	213%	121%	29%	93%	64%
TTGTTT [SEQ ID NO:6]	–	–	–	–	24%	98%	132%	57%	116%	441%	143%	41%	73%	338%	126%	152%	159%	40%	140%	65%
TTTGTT [SEQ ID NO:3]	–	–	–	–	103%	341%	231%	108%	279%	1528%	361%	108%	344%	1165%	258%	549%	528%	199%	497%	193%
